Assay results taken from ChEMBL document CHEMBL1141150, “Synthesis of classical, four-carbon bridged 5-substituted furo[2,3-d]pyrimidine and 6-substituted pyrrolo[2,3-d]pyrimidine analogues as antifolates” (J Med Chem, 2005).

Assays:
[1] = molecular target: Thymidylate synthase (Homo sapiens, UniProt P04818); experiment: Inhibition of human thymidylate synthetase at 37 degree C pH 7.4
[2] = Ratio of Vmax, rel to Km (FPGS substrate activity) for recombinant human FPGS; type: ADME
[3] = molecular target: Thymidylate synthase (Escherichia coli, UniProt C3SWJ7); experiment: Inhibition of Escherichia coli thymidylate synthetase at 37 degree C pH 7.4
Sequence of Thymidylate synthase (Escherichia coli, UniProt C3SWJ7) (C3SWJ7 whole entry): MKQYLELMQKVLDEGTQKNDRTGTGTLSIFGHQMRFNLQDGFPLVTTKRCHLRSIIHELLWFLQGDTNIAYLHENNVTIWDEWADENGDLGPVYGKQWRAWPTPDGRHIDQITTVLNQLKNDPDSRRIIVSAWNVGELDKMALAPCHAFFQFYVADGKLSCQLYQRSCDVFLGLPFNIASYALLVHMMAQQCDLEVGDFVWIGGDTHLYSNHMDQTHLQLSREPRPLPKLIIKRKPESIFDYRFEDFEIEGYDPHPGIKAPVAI

[4] = molecular target: T1, Thymidylate synthase (Lactobacillus casei, UniProt P00469); experiment: Inhibition of Lactobacillus casei thymidylate synthetase at 37 degree C pH 7.4; parameters: species or system Lacticaseibacillus casei
T1 sequence (P00469 whole entry): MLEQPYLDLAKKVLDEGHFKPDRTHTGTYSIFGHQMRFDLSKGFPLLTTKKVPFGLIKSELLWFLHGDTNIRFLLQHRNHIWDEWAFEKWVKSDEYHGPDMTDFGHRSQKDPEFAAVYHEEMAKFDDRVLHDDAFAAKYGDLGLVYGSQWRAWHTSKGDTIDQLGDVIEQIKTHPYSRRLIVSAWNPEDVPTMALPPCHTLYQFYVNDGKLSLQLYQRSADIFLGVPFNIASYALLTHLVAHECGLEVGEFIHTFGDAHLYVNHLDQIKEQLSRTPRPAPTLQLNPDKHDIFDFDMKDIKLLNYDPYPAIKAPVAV

[5] = system: CCRF-CEM; experiment: Growth inhibitory activity against CCRF-CEM human lymphoblastic leukemia cells; type: functional, cell-based
[6] = system: CCRF-CEM; experiment: Growth inhibitory activity against MTX resistant subline of CCRF-CEM human lymphoblastic leukemia cells; type: functional, cell-based
[7] = system: CCRF-CEM; experiment: Growth inhibitory activity against resistant CCRF-CEM human lymphoblastic leukemia cells with decreased uptake of MTX; type: functional, cell-based
[8] = system: CCRF-CEM; experiment: Growth inhibitory activity against MTX resistant CCRF-CEM human lymphoblastic leukemia cells with decreased polyglutamylation; type: functional, cell-based
[9] = Vmax, rel (FPGS substrate activity) for recombinant human FPGS; type: ADME
[10] = molecular target: T2, Dihydrofolate reductase (Escherichia coli, UniProt P0ABQ4)
T2 sequence (P0ABQ4 whole entry): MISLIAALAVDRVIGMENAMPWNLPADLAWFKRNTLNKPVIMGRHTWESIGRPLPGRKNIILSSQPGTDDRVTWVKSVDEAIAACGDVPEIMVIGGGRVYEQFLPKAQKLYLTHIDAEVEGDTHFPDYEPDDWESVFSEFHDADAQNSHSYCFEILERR
Description: Inhibition of Escherichia coli dihydrofolate reductase at 37 degree C pH 7.4

[11] = molecular target: T3, Dihydrofolate reductase (Homo sapiens, UniProt P00374)
T3 sequence (P00374 whole entry): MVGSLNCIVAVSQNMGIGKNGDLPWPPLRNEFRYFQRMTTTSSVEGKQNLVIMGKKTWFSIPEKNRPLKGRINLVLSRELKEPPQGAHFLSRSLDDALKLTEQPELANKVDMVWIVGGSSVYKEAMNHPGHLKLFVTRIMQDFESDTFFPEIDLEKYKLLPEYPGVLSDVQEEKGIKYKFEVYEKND
Description: Inhibition of human dihydrofolate reductase at 37 degree C pH 7.4

[12] = molecular target: Dihydrofolate reductase (Lactobacillus casei, UniProt P00381)
Sequence of Dihydrofolate reductase (Lactobacillus casei, UniProt P00381) (P00381 whole entry): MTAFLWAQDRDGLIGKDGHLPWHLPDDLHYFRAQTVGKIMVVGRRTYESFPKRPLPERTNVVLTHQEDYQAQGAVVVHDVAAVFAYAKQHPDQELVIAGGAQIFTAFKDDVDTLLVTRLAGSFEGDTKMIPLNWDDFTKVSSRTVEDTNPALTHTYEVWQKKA
Description: Inhibition of Lactobacillus casei dihydrofolate reductase at 37 degree C pH 7.4

[13] = system: 786-0; experiment: Cytotoxicity of compound against 786-0 renal cancer cell line; type: functional; conditions: Homo sapiens
[14] = system: SW-620; experiment: Cytotoxicity of compound against SW-620 colon cancer cell line; type: functional; conditions: Homo sapiens
[15] = system: CCRF-CEM; experiment: Protection of CCRF-CEM human leukemia cells against the growth inhibitory effect of MTX by 5 uM of thymidine at 5000 nM concentration of compound; type: functional
[16] = system: CCRF-CEM; experiment: Protection of CCRF-CEM human leukemia cells against the growth inhibitory effect of MTX by 10 uM of hypoxanthine at 5000 nM concentration of compound; type: functional
[17] = system: CCRF-CEM; experiment: Protection of CCRF-CEM human leukemia cells against the growth inhibitory effect of MTX by 10 uM of hypoxanthine and 5 uM of thymidine at 5000 nM concentration of compound; type: functional
[18] = system: SR; experiment: Cytotoxicity of compound against SR leukemia cell line; type: functional; conditions: Homo sapiens
[19] = system: HL-60; experiment: Cytotoxicity of compound aganist HL-60 leukemia cell line; type: functional; conditions: Homo sapiens
[20] = system: K562; experiment: Cytotoxicity of compound against […] leukemia cell line; type: functional; conditions: Homo sapiens

Sequence of Thymidylate synthase (Homo sapiens, UniProt P04818) (P04818 whole entry): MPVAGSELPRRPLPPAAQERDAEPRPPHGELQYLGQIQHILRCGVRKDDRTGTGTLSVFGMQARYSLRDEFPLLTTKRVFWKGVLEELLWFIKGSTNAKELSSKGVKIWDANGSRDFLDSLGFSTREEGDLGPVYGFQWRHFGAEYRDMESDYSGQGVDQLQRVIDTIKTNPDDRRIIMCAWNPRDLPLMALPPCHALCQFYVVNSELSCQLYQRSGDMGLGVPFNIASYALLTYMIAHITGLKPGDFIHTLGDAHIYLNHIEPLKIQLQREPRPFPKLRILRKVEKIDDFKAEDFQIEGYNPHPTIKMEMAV

Row | SMILES | IC50 [1] | Ratio [2] | IC50 [3] | IC50 [4] | EC50 [5] | EC50 [6] | EC50 [7] | EC50 [8] | Vmax rel [9] | IC50 [10] | IC50 [11] | IC50 [12] | further results
1 | Nc1nc2[nH]c(CCCc3ccc(C(=O)N[C@@H](CCC(=O)O)C(=O)O)cc3)cc2c(=O)[nH]1 | > 17 µM | 0.63 | > 180 µM | > 100 µM | 0.46 µM | 0.86 µM | 4.35 µM | 0.47 µM | 0.57 | 22 µM | > 24 µM | > 110 µM | 
2 | Nc1nc(N)c2c(CCCCc3ccc(C(=O)N[C@@H](CCC(=O)O)C(=O)O)cc3)coc2n1 | > 18 µM | 0.27 | > 100 µM | > 100 µM | 0.12 µM | 4.85 µM | 0.265 µM | 3.15 µM | 0.54 | 21 µM | 21 µM | 10 µM | GI50 [13]: > 100 µM; GI50 [14]: 0.0783 µM; Relative growth [15]: 20%; Relative growth [16]: 21%; Relative growth [17]: 74%; GI50 [18]: 0.0478 µM; GI50 [19]: 0.0381 µM; GI50 [20]: 0.214 µM
3 | Nc1nc(N)c2c(CCCc3ccc(C(=O)N[C@@H](CCC(=O)O)C(=O)O)cc3)coc2n1 |  |  |  |  | 0.06 µM | ≥ 4.6 µM | 1.05 µM | 0.084 µM |  |  |  | 10 µM | 
4 | Nc1nc(N)c2c(CCc3ccc(C(=O)N[C@@H](CCC(=O)O)C(=O)O)cc3)coc2n1 |  | 0.07 |  |  |  |  |  |  | 0.65 |  |  |  | 
5 | Nc1nc2[nH]c(CCCCc3ccc(C(=O)N[C@@H](CCC(=O)O)C(=O)O)cc3)cc2c(=O)[nH]1 | > 17 µM | 0.086 | > 170 µM | > 100 µM | 1.1 µM | 3.05 µM | 8.1 µM | 18 µM | 0.54 | 100 µM | > 20 µM | > 110 µM | GI50 [13]: 0.898 µM; GI50 [14]: 3.81 µM; Relative growth [15]: 18%; Relative growth [16]: 85%; Relative growth [17]: 85%; GI50 [18]: 0.609 µM; GI50 [19]: 6.56 µM; GI50 [20]: 0.398 µM
6 | Nc1nc(N)c2nc(CNc3ccc(C(=O)N[C@@H](CCC(=O)O)C(=O)O)cc3)cnc2n1 [AMINOPTERIN] |  | 0.19 |  |  |  |  |  |  | 1 |  |  |  | 
7 | Nc1nc2[nH]cc(CCc3ccc(C(=O)N[C@@H](CCC(=O)O)C(=O)O)cc3)c2c(=O)[nH]1 [PEMETREXED] |  |  |  |  |  |  |  |  |  |  |  |  | Ki [1]: 0.34 µM
